According to US20140057915A1, “KINASE INHIBITORS” (TOPIVERT PHARMA LIMITED, priority 2012, published 2014):
pEC50, pIC50: −log10 of the molar value. Like-named read-outs stand apart in the source and are kept apart here.

Legend:
BDF1 mice = assay: TNBS-induced colitis in mice; assay type: in vivo, mouse; settings: TNBS; 2.5 mg/kg; 2 days
Experimental: (C) TNBS-Induced Colitis in Mice […] On Day 0 of the study TNBS (200 μL) is administered intra-colonically via a plastic catheter followed by BID dosing of the vehicle, reference or test compound for 2 or 4 days. During the study animals are weighed every day and stool observations are made and recorded as a score, based on stool consistency. At the time of sacrifice on Day 2 (or Day 4) the large intestine is removed and the length and weight recorded. Sections of the colon are taken for either MPO analysis to determine neutrophil infiltration or for histopathology involving scoring to determine disease severity.

cSrc = cSrc (Homo sapiens, UniProt P12931); assay: c-Src enzyme inhibition (FRET); assay type: biochemical
How it was run: (§1)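 Enzyme was preincubated with test compound (added as 4, 0.4, 0.04 or 0.004 μg/mL solutions) for 2 hr at RT. FRET peptide (8 μM solution) and ATP solution (800 μM for c-Src, 60 μM for Syk) were then added for 1 hr, followed by 1 hr protease development.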

Syk = Syk (Homo sapiens, UniProt P43405); assay: Syk enzyme inhibition (FRET); assay type: biochemical
How it was run: as §1

GSK3α [1] = target: T1, GSK3α (Homo sapiens, UniProt P49840); assay: GSK 3α enzyme inhibition (FRET), Method 2; assay type: biochemical; settings: Table 4a2, different laboratory
[2] = test system: TNFα release, d-U937 cells; assay: LPS-induced TNFα release in d-U937 cells; assay type: cell-based; settings: Homo sapiens, dU937
How it was run: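 U937 cells differentiated with PMA (100 ng/mL, 48–72 hr), pre-treated with compound for 2 hr, then stimulated with E. coli LPS (0.1 μg/mL) for 4 hr. Supernatant cytokine measured by sandwich ELISA; inhibition versus vehicle control, REC50 from concentration-response curve.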

[3] = test system: IL-8 release, d-U937 cells; assay: LPS-induced IL-8 release in d-U937 cells; assay type: cell-based; settings: Homo sapiens, dU937
How it was run: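 IL-8 release after a 4 hr challenge with LPS (0.1 μg/mL, E. coli 0111:B4) following a 2 hr compound pretreatment. Cells were human U937 monocytes differentiated to macrophage-type with PMA 100 ng/mL for 48–72 hr. Relative 50% effective concentration derived from concentration–response data.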

IL-8 release, PBMCs = assay: LPS-induced IL-8 release in PBMC cells; assay type: cell-based; settings: Homo sapiens, LPS stimulated, read-out: IC50 Values for Inhibition of Cytokine Release, PBMCs, IL-8
How it was run: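 PBMCs from healthy donors pretreated with compound for 2 h, then stimulated with 1 ng/ml LPS (E. coli 0111:B4) for 24 h at 37 °C, 5% CO2. Supernatant IL-8 and TNFα measured by sandwich ELISA with fluorescence read-out.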

IL-2 release, PBMCs = assay: IL-2 release in CD3/CD28 stimulated PBMC cells; assay type: cell-based; settings: Homo sapiens, read-out: IC50 Values for Inhibition of Cytokine Release, PBMCs, IL-2
Experimental: (§2) (c) IL-2 and IFN Gamma Release in CD3/CD28 Stimulated PBMC Cells
(§3) PBMCs from healthy subjects are separated from whole blood using a density gradient (Lymphoprep, Axis-Shield Healthcare). Cells are added to a 96 well plate pre-coated with a mixture of […] monoclonal antibodies (0.3 ug/ml eBioscience and 3 ug/ml BD Pharmingen respectively). Compound at the desired concentration is then added to the wells and the plate left for 3 days under normal tissue culture conditions. Supernatants are harvested and IL-2 and IFN gamma release determined by Sandwich ELISA (Duo-set, R&D System). The IC50 is determined from the dose response curve.

IFN gamma release, PBMCs = assay: IFN gamma release in CD3/CD28 stimulated PBMC cells; assay type: cell-based; settings: Homo sapiens, read-out: IC50 Values for Inhibition of Cytokine Release, PBMCs, IFNγ
Experimental: as §2, §3

IL-8 release, HT29 cells = assay: IL-1β-induced IL-8 release in HT29 cells; assay type: cell-based; settings: Homo sapiens, HT-29; IL-1β stimulated; read-out: IC50 Values for Inhibition of Cytokine Release, HT29 cells, IL-8
Experimental: (d) IL-1β-Induced IL-8 Release in HT29 Cells
HT29 cells, a human colon adenocarcinoma cell line, are plated in a 96 well plate (24 hrs) and pre-treated with compounds at the desired concentration for 2 hours before addition of 5 ng/ml of IL-1β (Abeam) for 24 hours, Supernatants are harvested for IL-8 quantification by Sandwich ELISA (Duo-set, R&D System). The IC50 is determined from the dose response curve.

PBMC cells = assay: Cell mitosis assay; assay type: cell-based; settings: Homo sapiens, read-out: % Inhibition of mitosis in PBMC cells at 5 μg/mL
Experimental: PBMCs from healthy subjects are separated from whole blood (Quintiles, London, UK) using a density gradient (Histopaque®-1077, Sigma-Aldrich, Poole, UK). The PBMCs (3 million cells per sample) are subsequently treated with 2% PHA (Sigma-Aldrich, Poole, UK) for 48 hr, followed by a 20 hr exposure to varying concentrations of test compounds. At 2 hr before collection, PBMCs are treated with demecolcine (0.1 μg/mL; Invitrogen, Paisley, UK) to arrest cells in metaphase. […] Fluorescence is observed using an ATTUNE flow cytometer (Invitrogen, Paisley, UK), gating for lymphocytes.

[4] = target: T2, human ether a go-go (hERG) channel (Homo sapiens, UniProt Q12809); assay: hERG inhibition (IonWorks patch clamp electrophysiology); assay type: cell-based; settings: maximum final assay concentration 3 μM
T2 construct: a Chinese Hamster Lung cell line stably expressing the full length hERG channel
Experimental: Eight-point concentration curves were generated using serial 3-fold dilutions from the maximum final assay concentration (3 μM). Electrophysiological recordings were made from a Chinese Hamster Lung cell line stably expressing the full length hERG channel. Single cell ionic currents were measured in the perforated patch clamp configuration (100 μg/mL) amphotericin) at room temperature (21-23° C.) using an IonWorks Quattro instrument. The internal solution contained (mM): 140 KCl, 1 MgCl2, 1 EGTA, 20 HEPES and was buffered to pH 7.3. The external solution contained (mM):138 NaCl, 2.7 KCl, 0.9 CaCl2, 0.5 MgCl2, 8 Na2HPO4, 1.5 KH2PO4, also buffered to pH 7.3. Cells were clamped at a holding potential of −70 mV for 30 s and then stepped to +40 mV for 1 s. This was followed by a hyperpolarising step of 1s to −30 mV to evoke the hERG tail current. This sequence was repeated 5 times at a frequency of 0.25 Hz. Currents were measured from the tail step at the 5th pulse, and referenced to the holding current. Compounds were then incubated for 6-7 minutes prior to a second measurement of the hERG signal using an identical pulse train. Eight-point concentration curves were generated using serial 3-fold dilutions from the maximum final assay concentration (3 μM).

GSK3α [5] = target: T1, GSK3α; assay: GSK 3α enzyme inhibition (FRET), Method 1; assay type: biochemical; settings: Table 4a1
How it was run: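 Inhibition is scored from phosphorylation of a dual-labelled synthetic peptide, measured by FRET after protease cleavage of unphosphorylated substrate. Incubations are 2 hr compound with enzyme, then 1 hr kinase reaction.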

[6] = test system: ICAM-1 expression, BEAS2B cells; assay: Poly I:C-induced ICAM-1 expression in BEAS2B cells; assay type: cell-based; settings: Homo sapiens, BEAS-2B; read-out: Poly IC induced ICAM1 in BEAS2B, IC50
How it was run: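 BEAS2B human bronchial epithelial cells pre-incubated 2 h with compound, then transfected with poly I:C (1 μg/mL) plus Oligofectamine. After 18 h, cell-surface ICAM-1 read by cell-based ELISA (A450–655), normalised to Crystal Violet cell number (A595); inhibition calculated against vehicle control at each concentration.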

HRV16 in MRC5 cells = assay: HRV16 induced CPE in MRC5 cells; assay type: cell-based; settings: Human rhinovirus sp., HRV-16
Experimental: (j) Assessment of HRV16 Induced CPE in MRC5 Cells
MRC-5 cells are infected with HRV16 at an MOI of 1n DMEM containing 5% FCS and 1.5 mM magnesium chloride, followed by incubation for 1 hr at 33° C. to promote adsorption. The supernatants are aspirated, and then fresh media added followed by incubation for 4 days. Where appropriate, cells are pre-incubated with compound or DMSO for 2 hr, and the compounds and DMSO added again after washout of the virus.
After washing, 1% SDS in distilled water (100 μL) is added to each well, and the plates are shaken lightly for 1-2 hr prior to reading the absorbance at 660 nm. The percentage inhibition for each well is calculated. The IC50 value is calculated from the concentration-response curve generated by the serial dilutions of the test compounds.

d-U937 cells = assay: Cell viability: MTT assay; assay type: cell-based, human; settings: 1 μg/mL
How it was run: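 Differentiated U937 cells exposed to compound at 1 or 10 μg/mL, either 4 h in 5% FCS or 24 h in 10% FCS RPMI1640. MTT then added for 1 h, formazan dissolved in DMSO and read at 550 nm. Viability loss given as % versus 0.5% DMSO vehicle; apparent gains appear negative.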

[7] = Table 4a2, different laboratory

T1 sequence (P49840 whole entry): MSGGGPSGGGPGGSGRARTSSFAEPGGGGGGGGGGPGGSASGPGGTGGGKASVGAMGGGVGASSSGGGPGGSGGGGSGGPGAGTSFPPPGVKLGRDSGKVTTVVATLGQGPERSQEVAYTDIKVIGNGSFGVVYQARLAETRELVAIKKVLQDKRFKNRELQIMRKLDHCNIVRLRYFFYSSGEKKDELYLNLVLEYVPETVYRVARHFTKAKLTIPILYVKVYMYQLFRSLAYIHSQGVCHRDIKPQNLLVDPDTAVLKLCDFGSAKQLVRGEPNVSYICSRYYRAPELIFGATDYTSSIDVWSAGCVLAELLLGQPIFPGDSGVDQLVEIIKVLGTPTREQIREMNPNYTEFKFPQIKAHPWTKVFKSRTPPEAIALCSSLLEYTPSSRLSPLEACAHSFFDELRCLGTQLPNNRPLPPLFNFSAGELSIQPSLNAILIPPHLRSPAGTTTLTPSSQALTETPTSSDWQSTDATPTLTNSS
Sequence of cSrc (P12931 whole entry): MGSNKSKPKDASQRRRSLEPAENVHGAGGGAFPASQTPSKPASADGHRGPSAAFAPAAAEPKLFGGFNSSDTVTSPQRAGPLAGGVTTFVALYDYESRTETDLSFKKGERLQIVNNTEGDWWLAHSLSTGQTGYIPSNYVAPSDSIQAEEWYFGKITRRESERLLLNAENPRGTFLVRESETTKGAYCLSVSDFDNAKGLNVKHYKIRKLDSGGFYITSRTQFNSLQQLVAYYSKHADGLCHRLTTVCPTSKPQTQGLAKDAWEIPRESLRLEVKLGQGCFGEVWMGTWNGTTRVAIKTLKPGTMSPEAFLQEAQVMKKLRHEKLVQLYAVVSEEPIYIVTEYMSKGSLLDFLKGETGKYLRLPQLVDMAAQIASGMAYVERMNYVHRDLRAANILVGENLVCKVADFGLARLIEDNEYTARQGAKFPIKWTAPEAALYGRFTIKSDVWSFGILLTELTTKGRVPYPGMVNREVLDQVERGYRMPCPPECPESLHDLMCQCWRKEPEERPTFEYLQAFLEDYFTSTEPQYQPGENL
T2 sequence (Q12809 whole entry): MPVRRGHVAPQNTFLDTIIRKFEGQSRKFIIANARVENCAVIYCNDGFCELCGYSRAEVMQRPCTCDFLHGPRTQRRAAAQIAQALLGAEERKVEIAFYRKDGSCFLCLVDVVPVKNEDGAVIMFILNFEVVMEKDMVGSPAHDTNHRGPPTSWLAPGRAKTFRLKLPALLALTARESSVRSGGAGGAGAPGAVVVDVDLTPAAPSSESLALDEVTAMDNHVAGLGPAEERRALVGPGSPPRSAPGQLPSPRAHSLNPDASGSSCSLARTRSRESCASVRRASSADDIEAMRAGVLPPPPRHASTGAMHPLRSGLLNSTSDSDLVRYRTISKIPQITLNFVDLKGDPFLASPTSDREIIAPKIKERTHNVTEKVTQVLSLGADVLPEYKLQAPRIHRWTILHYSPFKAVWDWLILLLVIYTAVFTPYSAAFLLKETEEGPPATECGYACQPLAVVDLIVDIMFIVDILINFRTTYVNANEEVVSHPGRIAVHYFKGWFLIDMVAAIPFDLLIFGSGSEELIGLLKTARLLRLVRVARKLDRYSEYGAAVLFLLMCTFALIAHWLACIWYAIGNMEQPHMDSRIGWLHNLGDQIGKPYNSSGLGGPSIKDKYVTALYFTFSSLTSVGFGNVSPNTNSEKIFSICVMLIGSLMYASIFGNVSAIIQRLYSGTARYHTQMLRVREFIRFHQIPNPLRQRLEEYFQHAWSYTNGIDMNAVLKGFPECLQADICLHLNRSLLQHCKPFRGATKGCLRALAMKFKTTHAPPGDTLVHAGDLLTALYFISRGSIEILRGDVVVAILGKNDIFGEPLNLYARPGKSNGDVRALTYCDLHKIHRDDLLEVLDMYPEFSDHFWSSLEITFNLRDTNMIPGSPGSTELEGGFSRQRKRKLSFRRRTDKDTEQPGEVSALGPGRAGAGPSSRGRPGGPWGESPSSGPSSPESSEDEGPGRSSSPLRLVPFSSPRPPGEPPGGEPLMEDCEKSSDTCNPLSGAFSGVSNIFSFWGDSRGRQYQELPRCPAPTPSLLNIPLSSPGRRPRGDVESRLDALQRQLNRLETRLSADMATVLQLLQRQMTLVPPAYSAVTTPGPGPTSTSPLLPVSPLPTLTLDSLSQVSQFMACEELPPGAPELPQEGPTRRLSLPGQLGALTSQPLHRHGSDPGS

Row | pIC50 (cSrc; [7]) | pIC50 (Syk; [7]) | pIC50 (GSK3α [1]) | pIC50 (IL-8 release, HT29 cells) | Compound | pIC50 (IL-8 release, PBMCs) | pIC50 (IL-2 release, PBMCs) | pIC50 (IFN gamma release, PBMCs) | inhibition at 5 µg/mL (PBMC cells) [%] | also measured
1 | – | – | – | – | CCCC1O[C@@H]2C[C@H]3[C@@H]4CCC5=CC(=O)C=C[C@]5(C)[C@H]4[C@@H](O)C[C@]3(C)[C@]2(C(=O)CO)O1 (some centres unmarked) [Budesonide, reference compound] | – | – | – | – | LP inflammation (BDF1 mice): 2.5 ± 0.4; Ulcer grade (BDF1 mice): 2.9 ± 0.6
2 | 7.68 | 7.21 | 4.98 | 8.13 | C#Cc1cc(Nc2nccc(Oc3ccc(NC(=O)Nc4cc(C(C)(C)C)nn4-c4ccc(C)cc4)c4ccccc34)n2)cc(C(=O)N[C@@H](C)CN2CCOCC2)c1 [Example 81, (S)-3-((4-((4-(3-(3-(tert-Butyl)-1-(p-tolyl)-1H-pyrazol-5-yl)ureido)naphthalen-1-yl)oxy)pyrimidin-2-yl)amino)-5-ethynyl-N-(1-morpholinopropan-2-yl)benzamide] | 8.49 | 6.95 | 8.74 | -2.6 | pIC50 ([2]; Table 4c2, different laboratory, read-out: IC50 Values for Inhibition of Cytokine Release, dU937 cells, TNFα): 8.85; pIC50 ([3]; Table 4c2, different laboratory, read-out: IC50 Values for Inhibition of Cytokine Release, dU937 cells, IL-8): 8.82; pIC50 [4]: < 5.52
3 | 7.35 | 7.47 | 5.75 | 8.52 | C#Cc1cc(Nc2nccc(Oc3ccc(NC(=O)Nc4cc(C(C)(C)C(F)(F)F)nn4-c4ccc(C)cc4)c4ccccc34)n2)cc(C(=O)NCCN2CCOCC2)c1 [Example 76, 3-Ethynyl-N-(2-morpholinoethyl)-5-((4-((4-(3-(1-(p-tolyl)-3-(1,1,1-trifluoro-2-methylpropan-2-yl)-1H-pyrazol-5-yl)ureido)naphthalen-1-yl)oxy)pyrimidin-2-yl)amino)-benzamide] | 8.68 | 6.73 | 8.74 | 23 | –
4 | 7.59 | 7.23 | 4.93 | 8.28 | C#Cc1cc(Nc2nccc(Oc3ccc(NC(=O)Nc4cc(C(C)(C)C)nn4-c4ccc(C)cc4)c4ccccc34)n2)cc(C(=O)N[C@H](C)CN2CCOCC2)c1 [Example 83, (R)-3-((4-((4-(3-(3-(tert-Butyl)-1-(p-tolyl)-1H-pyrazol-5-yl)ureido)naphthalen-1-yl)oxy)pyrimidin-2-yl)amino)-5-ethynyl-N-(1-morpholinopropan-2-yl)benzamide] | 8.42 | 6.91 | 8.74 | 20.9 | –
5 | – | – | – | – | Cc1ccc(-n2nc(C(C)(C)C)cc2NC(=O)Nc2ccc(Oc3ccnc(Nc4cc(C)cc(C(N)=O)c4)n3)c3ccccc23)cc1 [Example 40, 3-((4-((4-(3-(3-(tert-butyl)-1-(p-tolyl)-1H-pyrazol-5-yl)ureido)naphthalen-1-yl)oxy)pyrimidin-2-yl)amino)-5-methylbenzamide] | – | – | – | – | pIC50 (cSrc; Table 4a1): 8.52; pIC50 (Syk; Table 4a1): 8.05; pIC50 (GSK3α [5]): 5.87; pEC50 ([2]; relative to 10 μg/mL BIRB796, Table 4c1, read-out: LPS Induced Release of Cytokine in d-U937 Cells, TNFα REC50): 9.70; pIC50 ([3]; Table 4c1, read-out: LPS Induced Release of Cytokine in d-U937 Cells, IL-8 IC50): 8.66; pIC50 [6]: 9.15; pIC50 (HRV16 in MRC5 cells): 8.54; Cell viability at time point in d-U937 cells, 4 h (d-U937 cells; 4 h): −ve (−ve and +ve indicate that the value is below and above respectively, the no significant effect threshold, defined as 30% inhibition at 1 μg/mL at the time point indicated); Cell viability at time point in d-U937 cells, 24 h (d-U937 cells; 24 h): −ve (−ve and +ve indicate that the value is below and above respectively, the no significant effect threshold, defined as 30% inhibition at 1 μg/mL at the time point indicated)
